Source: PubChem BioAssay (NCI)
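Compound exposure: 48 hours, 5 concentrations, 96-well plates. TGI: concentration producing complete growth inhibition.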

How the values were obtained:
Assay in all cases: NCI tumour cell line growth inhibition, 48 h
786-0 renal = test system: 786-0 renal
A498 renal = test system: A498 renal
A549 NSCLC = test system: A549 NSCLC
ACHN renal = test system: ACHN renal
BT-549 breast = test system: BT-549 breast
CAKI-1 renal = test system: CAKI-1 renal
CCRF-CEM leukemia = test system: CCRF-CEM leukemia
COLO 205 colon = test system: COLO 205 colon
DU-145 prostate = test system: DU-145 prostate
EKVX NSCLC = test system: EKVX NSCLC
HCC-2998 colon = test system: HCC-2998 colon
HCT-116 colon = test system: HCT-116 colon
HCT-15 colon = test system: HCT-15 colon
HL-60(TB) leukemia = test system: HL-60(TB) leukemia
HOP-62 NSCLC = test system: HOP-62 NSCLC
HOP-92 NSCLC = test system: HOP-92 NSCLC
HS 578T breast = test system: HS 578T breast
HT29 colon = test system: HT29 colon
IGROV1 ovarian = test system: IGROV1 ovarian
K-562 leukemia = test system: K-562 leukemia
KM12 colon = test system: KM12 colon
LOX IMVI melanoma = test system: LOX IMVI melanoma
M14 melanoma = test system: M14 melanoma
MALME-3M melanoma = test system: MALME-3M melanoma
MCF7 breast = test system: MCF7 breast
MDA-MB-231 breast = test system: MDA-MB-231 breast
MDA-MB-435 = test system: MDA-MB-435
MDA-N = test system: MDA-N
MOLT-4 leukemia = test system: MOLT-4 leukemia
NCI-H226 lung = test system: NCI-H226 lung
NCI-H23 lung = test system: NCI-H23 lung
NCI-H460 lung = test system: NCI-H460 lung
NCI-H522 lung = test system: NCI-H522 lung
NCI/ADR-RES ovarian = test system: NCI/ADR-RES ovarian
OVCAR-3 ovarian = test system: OVCAR-3 ovarian
OVCAR-4 ovarian = test system: OVCAR-4 ovarian
OVCAR-5 ovarian = test system: OVCAR-5 ovarian
OVCAR-8 ovarian = test system: OVCAR-8 ovarian
PC-3 prostate = test system: PC-3 prostate
RPMI-8226 leukemia = test system: RPMI-8226 leukemia
RXF 393 renal = test system: RXF 393 renal
SF-268 CNS = test system: SF-268 CNS
SF-295 CNS = test system: SF-295 CNS
SF-539 CNS = test system: SF-539 CNS
SK-MEL-2 melanoma = test system: SK-MEL-2 melanoma
SK-MEL-28 melanoma = test system: SK-MEL-28 melanoma
SK-MEL-5 melanoma = test system: SK-MEL-5 melanoma
SK-OV-3 ovarian = test system: SK-OV-3 ovarian
SN12C renal = test system: SN12C renal
SNB-19 CNS = test system: SNB-19 CNS
SNB-75 CNS = test system: SNB-75 CNS
SW-620 colon = test system: SW-620 colon
TK-10 renal = test system: TK-10 renal
U251 CNS = test system: U251 CNS
UACC-257 melanoma = test system: UACC-257 melanoma
UACC-62 melanoma = test system: UACC-62 melanoma
UO-31 renal = test system: UO-31 renal
SR leukemia = test system: SR leukemia

**Q.** Which results are given for `C(=Nc1ccccc1C1SCCCS1)c1ccccc1`?
**A.** TGI (786-0 renal): > 100 µM; TGI (A498 renal): > 100 µM; TGI (A549 NSCLC): > 100 µM; TGI (ACHN renal): > 100 µM; TGI (BT-549 breast): > 100 µM; TGI (CAKI-1 renal): > 100 µM; TGI (CCRF-CEM leukemia): > 100 µM; TGI (COLO 205 colon): > 100 µM; TGI (DU-145 prostate): > 100 µM; TGI (EKVX NSCLC): > 100 µM; TGI (HCC-2998 colon): > 100 µM; TGI (HCT-116 colon): > 100 µM; TGI (HCT-15 colon): > 100 µM; TGI (HL-60(TB) leukemia): > 100 µM; TGI (HOP-62 NSCLC): > 100 µM; TGI (HOP-92 NSCLC): > 100 µM; TGI (HS 578T breast): > 100 µM; TGI (HT29 colon): > 100 µM; TGI (IGROV1 ovarian): > 100 µM; TGI (K-562 leukemia): > 100 µM; TGI (KM12 colon): > 100 µM; TGI (LOX IMVI melanoma): > 100 µM; TGI (M14 melanoma): > 100 µM; TGI (MALME-3M melanoma): > 100 µM; TGI (MCF7 breast): > 100 µM; TGI (MDA-MB-231 breast): > 100 µM; TGI (MDA-MB-435): > 100 µM; TGI (MDA-N): > 100 µM; TGI (MOLT-4 leukemia): > 100 µM; TGI (NCI-H226 lung): > 100 µM; TGI (NCI-H23 lung): > 100 µM; TGI (NCI-H460 lung): > 100 µM; TGI (NCI-H522 lung): > 100 µM; TGI (NCI/ADR-RES ovarian): > 100 µM; TGI (OVCAR-3 ovarian): > 100 µM; TGI (OVCAR-4 ovarian): > 100 µM; TGI (OVCAR-5 ovarian): > 100 µM; TGI (OVCAR-8 ovarian): > 100 µM; TGI (PC-3 prostate): > 100 µM; TGI (RPMI-8226 leukemia): > 100 µM; TGI (RXF 393 renal): > 100 µM; TGI (SF-268 CNS): > 100 µM; TGI (SF-295 CNS): > 100 µM; TGI (SF-539 CNS): > 100 µM; TGI (SK-MEL-2 melanoma): > 100 µM; TGI (SK-MEL-28 melanoma): > 100 µM; TGI (SK-MEL-5 melanoma): > 100 µM; TGI (SK-OV-3 ovarian): > 100 µM; TGI (SN12C renal): > 100 µM; TGI (SNB-19 CNS): > 100 µM; TGI (SNB-75 CNS): > 100 µM; TGI (SW-620 colon): > 100 µM; TGI (TK-10 renal): > 100 µM; TGI (U251 CNS): > 100 µM; TGI (UACC-257 melanoma): > 100 µM; TGI (UACC-62 melanoma): > 100 µM; TGI (UO-31 renal): > 100 µM

**Q.** How did the TGI (786-0 renal) turn out when `O=C(c1cc(Cl)ccc1Cl)N1CCN(c2ccc(Cl)c(Cl)c2)CC1` was run?
**A.** 48.5 µM

**Q.** What about the TGI (A498 renal) of the same molecule?
**A.** 44.1 µM

**Q.** And the TGI (A549 NSCLC)?
**A.** > 100 µM

**Q.** What about the TGI (ACHN renal) of the same molecule?
**A.** > 100 µM

**Q.** What about the TGI (BT-549 breast) of the same molecule?
**A.** 80.8 µM

**Q.** What about the TGI (CAKI-1 renal) of the same molecule?
**A.** > 100 µM

**Q.** And the TGI (CCRF-CEM leukemia)?
**A.** > 100 µM

**Q.** What about the TGI (DU-145 prostate) of the same molecule?
**A.** > 100 µM

**Q.** What about the TGI (EKVX NSCLC) of the same molecule?
**A.** > 100 µM

**Q.** And the TGI (HCC-2998 colon)?
**A.** > 100 µM

**Q.** And the TGI (HCT-116 colon)?
**A.** > 100 µM

**Q.** What about the TGI (HCT-15 colon) of the same molecule?
**A.** > 100 µM

**Q.** What about the TGI (HL-60(TB) leukemia) of the same molecule?
**A.** > 100 µM

**Q.** What about the TGI (HOP-62 NSCLC) of the same molecule?
**A.** > 100 µM

**Q.** What about the TGI (HOP-92 NSCLC) of the same molecule?
**A.** > 100 µM

**Q.** And the TGI (HS 578T breast)?
**A.** > 100 µM

**Q.** What about the TGI (HT29 colon) of the same molecule?
**A.** 83.9 µM

**Q.** What about the TGI (IGROV1 ovarian) of the same molecule?
**A.** > 100 µM

**Q.** What about the TGI (K-562 leukemia) of the same molecule?
**A.** 85.4 µM

**Q.** And the TGI (KM12 colon)?
**A.** 51.9 µM

**Q.** And the TGI (LOX IMVI melanoma)?
**A.** 84.1 µM

**Q.** And the TGI (MALME-3M melanoma)?
**A.** > 100 µM

**Q.** What about the TGI (MCF7 breast) of the same molecule?
**A.** 72 µM

**Q.** What about the TGI (MDA-MB-231 breast) of the same molecule?
**A.** > 100 µM

**Q.** What about the TGI (MDA-N) of the same molecule?
**A.** 96.2 µM

**Q.** What about the TGI (MOLT-4 leukemia) of the same molecule?
**A.** 54.3 µM

**Q.** What about the TGI (NCI-H226 lung) of the same molecule?
**A.** > 100 µM

**Q.** And the TGI (NCI-H23 lung)?
**A.** > 100 µM

**Q.** What about the TGI (NCI-H460 lung) of the same molecule?
**A.** 36.1 µM

**Q.** What about the TGI (NCI-H522 lung) of the same molecule?
**A.** 52.6 µM

**Q.** And the TGI (OVCAR-3 ovarian)?
**A.** > 100 µM

**Q.** And the TGI (OVCAR-4 ovarian)?
**A.** > 100 µM

**Q.** What about the TGI (OVCAR-5 ovarian) of the same molecule?
**A.** > 100 µM

**Q.** What about the TGI (OVCAR-8 ovarian) of the same molecule?
**A.** 45.5 µM

**Q.** And the TGI (PC-3 prostate)?
**A.** 97.8 µM

**Q.** What about the TGI (RPMI-8226 leukemia) of the same molecule?
**A.** > 100 µM

**Q.** What about the TGI (RXF 393 renal) of the same molecule?
**A.** 54.1 µM

**Q.** And the TGI (SF-268 CNS)?
**A.** > 100 µM

**Q.** What about the TGI (SF-295 CNS) of the same molecule?
**A.** > 100 µM

**Q.** What about the TGI (SF-539 CNS) of the same molecule?
**A.** 76.4 µM

**Q.** What about the TGI (SK-MEL-28 melanoma) of the same molecule?
**A.** > 100 µM

**Q.** What about the TGI (SK-MEL-5 melanoma) of the same molecule?
**A.** 30.3 µM

**Q.** What about the TGI (SN12C renal) of the same molecule?
**A.** > 100 µM

**Q.** What about the TGI (SNB-75 CNS) of the same molecule?
**A.** > 100 µM

**Q.** What about the TGI (SR leukemia) of the same molecule?
**A.** > 100 µM

**Q.** And the TGI (SW-620 colon)?
**A.** > 100 µM

**Q.** What about the TGI (TK-10 renal) of the same molecule?
**A.** > 100 µM

**Q.** What about the TGI (U251 CNS) of the same molecule?
**A.** > 100 µM

**Q.** What about the TGI (UACC-257 melanoma) of the same molecule?
**A.** 83.9 µM

**Q.** What about the TGI (UO-31 renal) of the same molecule?
**A.** 33.8 µM

**Q.** What does the source list for `O=c1cnnc2sc(=S)[nH]n12`?
**A.** TGI (786-0 renal): 49.8 µM; TGI (A498 renal): > 100 µM; TGI (A549 NSCLC): > 100 µM; TGI (ACHN renal): > 100 µM; TGI (BT-549 breast): 64.4 µM; TGI (CAKI-1 renal): 68.2 µM; TGI (CCRF-CEM leukemia): 12.1 µM; TGI (COLO 205 colon): > 100 µM; TGI (DU-145 prostate): > 100 µM; TGI (EKVX NSCLC): > 100 µM; TGI (HCC-2998 colon): > 100 µM; TGI (HCT-116 colon): > 100 µM; TGI (HCT-15 colon): 57.3 µM; TGI (HL-60(TB) leukemia): 79.9 µM; TGI (HOP-62 NSCLC): 9.18 µM; TGI (HS 578T breast): > 100 µM; TGI (HT29 colon): > 100 µM; TGI (IGROV1 ovarian): 74 µM; TGI (K-562 leukemia): 36.8 µM; TGI (KM12 colon): > 100 µM; TGI (LOX IMVI melanoma): 13.9 µM; TGI (M14 melanoma): > 100 µM; TGI (MALME-3M melanoma): > 100 µM; TGI (MCF7 breast): 39.8 µM; TGI (MDA-MB-435): > 100 µM; TGI (MDA-N): > 100 µM; TGI (MOLT-4 leukemia): 42.2 µM; TGI (NCI-H460 lung): > 100 µM; TGI (NCI-H522 lung): 27 µM; TGI (NCI/ADR-RES ovarian): > 100 µM; TGI (OVCAR-3 ovarian): > 100 µM; TGI (OVCAR-4 ovarian): 53.4 µM; TGI (OVCAR-5 ovarian): > 100 µM; TGI (OVCAR-8 ovarian): 34.3 µM; TGI (PC-3 prostate): > 100 µM; TGI (RPMI-8226 leukemia): 29.1 µM; TGI (SF-268 CNS): > 100 µM; TGI (SF-295 CNS): > 100 µM; TGI (SF-539 CNS): > 100 µM; TGI (SK-MEL-2 melanoma): > 100 µM; TGI (SK-MEL-28 melanoma): > 100 µM; TGI (SK-MEL-5 melanoma): 57.9 µM; TGI (SNB-19 CNS): > 100 µM; TGI (SR leukemia): 62.3 µM; TGI (SW-620 colon): 24.9 µM; TGI (U251 CNS): 75.3 µM; TGI (UACC-257 melanoma): 78.4 µM; TGI (UACC-62 melanoma): > 100 µM; TGI (UO-31 renal): 52.1 µM
